Assay results published in PubChem BioAssay AID2060912 (Molecular Pharmacology Branch, DTP, NCI, 2025).

Tested on: HUVEC/MSC spheroids viability
Test: Human HUVEC/MSC cell line growth inhibition [KRAS2];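 for viability, T/C: percent of DMSO vehicle control luminescence so 100% = untreated viability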
Conditions: for IC50: curve of first compound; for viability, T/C: stronger effect = lower value; active = viability on the fitted dose curve at most 10% of control; inactive = the rest
Description: Multicellular complex tumor spheroid response to RAS pathway inhibitors in combination with a targeted agents in patient-derived cell lines with oncogenic KRAS variants from multiple cancer types
A high-throughput screen of multi-cell type tumor spheroids was designed to identify active combinations of targeted small molecules and KRAS pathway inhibitors. Complex spheroids include a stromal component modeled by human endothelial cells (HUVEC) and fibroblasts modeled by human mesenchymal stem cells (MSCs). The concentration ranges selected for each drug and investigational agent were based upon clinically achievable concentrations if the clinical Cmax of the agent was known. * [This particular assayID is a followup dataset requested by reviewers of the manuscript. It is a test of the HUVEC and MSC without the tumor cells, and was conducted using different drug plates and a different plate layout.]
Compounds. The drugs and investigational agents: BI-3406 (NSC825286), BAY-293 (NSC824723), batoprotafib (TNO155; NSC825523), sotorasib (AMG 510; NSC818433), MRTX1257 (NSC819558), elimusertib (BAY 1895344; NSC800525), molibresib (GSK525762; NSC774829), temuterkib (LY3214996; NSC803410), venetoclax (NSC766270), alisertib (NSC759677), olaparib (NSC753686), talazoparib (NSC767125), erdafitinib (NSC781556), ipatasertib (NSC767898), cabozantinib (NSC761068), nintedanib (NSC756659), abemaciclib (NSC768073), docetaxel (NSC628503), trametinib (NSC758246), and sapanisertib (NSC764658) were obtained from the National Cancer Institute (NCI) Developmental Therapeutics Program Chemical Repository. The FDA-approved anticancer drug set is available from the Developmental Therapeutics Program. […] The stock solutions were prepared in dimethyl sulfoxide (DMSO, Sigma-Aldrich, St. Louis, MO, cat. D2650) at 800-fold the tested concentration and stored at -70 degrees C prior to their use. All drugs and investigational agents were tested over a range starting from a high concentration at or near the clinical Cmax and decreasing in half-log increments. If the clinical Cmax for an agent had not been determined, the highest concentration tested was 10 microM.
Cell Culture. All cells were maintained in an incubator at 37 degrees C and 5% CO2 with 95% humidity. The PDC lines were cultured according to standard operating procedures established by the NCI PDMR (https://pdmr.cancer.gov/sops/default.htm). Briefly, all PDCs were thawed and cultured in Matrigel-coated flasks prepared with a working solution of 1X Ham's F-12 nutrient mix, without supplementation (Invitrogen, Waltham, MA, cat. 11765054), 100 U/mL penicillin-streptomycin (Invitrogen, cat. 15140122), and 2.5% Matrigel (Corning Inc., Corning, NY, cat. 354248) for the first three passages. All PDCs were cultured in complete DMEM/F-12 media containing advanced DMEM/F-12 (Invitrogen, cat. 12634028), 4.9% defined fetal bovine serum, heat inactivated (HyClone Laboratories Inc., Logan, UT, cat. SH30070.03HI), 389 ng/mL hydrocortisone (Sigma-Aldrich, cat. H4001), 9.7 ng/mL human EGF recombinant protein (Invitrogen, cat. PHG0313), 23.4 microg/mL adenine (Sigma-Aldrich, cat. A2786), 97.3 U/mL penicillin-streptomycin (Invitrogen, cat. 15140122), 1.9 mM L-glutamine (Invitrogen, cat. 25030081), and 9.7 microM Y-27632 dihydrochloride (Tocris Bioscience, Bristol, United Kingdom, cat. 1254). The PDCs were cultured in complete DMEM/F12 media without 9.7 microM Y-27632 dihydrochloride for at least two passages prior to the screen. The established cell line HOP-62 was cultured in RPMI 1640 medium, HEPES (Invitrogen, cat. 22400105) with 10% defined fetal bovine serum (HyClone Laboratories Inc., cat. SH30070.03) and 2 mM L-glutamine (Invitrogen, cat. 25030081). The pooled donor HUVEC were cultured in endothelial cell growth medium 2 (PromoCell, Heidelberg, Germany, cat. C-22011) and the hMSC were cultured in mesenchymal stem cell growth medium 2 (PromoCell, cat. C-28009). […]

CC(=O)Nc1cccc(-n2c(=O)n(C3CC3)c(=O)c3c(Nc4ccc(I)cc4F)n(C)c(=O)c(C)c32)c1 + C=CC(=O)N1CCN(c2nc(=O)n(-c3c(C)ccnc3C(C)C)c3nc(-c4c(O)cccc4F)c(F)cc23)C(C)C1
16.1 nM: IC50 (second compound 0.0316 µM)
active: viability, T/C (second compound 10 µM, first compound 0.03 µM) 8.78%
17.8 nM: IC50 (second compound 0.1 µM)
16.3 nM: IC50 (second compound 3.16 µM)
17.9 nM: IC50 (second compound 1 µM)
inactive: viability, T/C (second compound 0.0316 µM, first compound 94.9 pM) 126% | viability, T/C (second compound 0.0316 µM, first compound 0.0003 µM) 140% | viability, T/C (second compound 0.0316 µM, first compound 0.000949 µM) 163% | viability, T/C (second compound 0.0316 µM, first compound 0.003 µM) 114% | viability, T/C (second compound 0.0316 µM, first compound 0.00949 µM) 77.1% | viability, T/C (second compound 0.0316 µM, first compound 0.03 µM) 20.7% | viability, T/C (second compound 0.1 µM, first compound 94.9 pM) 92.7% | viability, T/C (second compound 0.1 µM, first compound 0.0003 µM) 130% | viability, T/C (second compound 0.1 µM, first compound 0.000949 µM) 141% | viability, T/C (second compound 0.1 µM, first compound 0.003 µM) 113% | viability, T/C (second compound 0.1 µM, first compound 0.00949 µM) 88.3% | viability, T/C (second compound 0.1 µM, first compound 0.03 µM) 18.6% | viability, T/C (second compound 0.316 µM, first compound 94.9 pM) 126% | viability, T/C (second compound 0.316 µM, first compound 0.0003 µM) 157% | viability, T/C (second compound 0.316 µM, first compound 0.000949 µM) 151% | viability, T/C (second compound 0.316 µM, first compound 0.003 µM) 119% | viability, T/C (second compound 0.316 µM, first compound 0.00949 µM) 80.3% | viability, T/C (second compound 0.316 µM, first compound 0.03 µM) 20.6% | viability, T/C (second compound 1 µM, first compound 94.9 pM) 148% | viability, T/C (second compound 1 µM, first compound 0.0003 µM) 133% | viability, T/C (second compound 1 µM, first compound 0.000949 µM) 148% | viability, T/C (second compound 1 µM, first compound 0.003 µM) 112% | viability, T/C (second compound 1 µM, first compound 0.00949 µM) 89.8% | viability, T/C (second compound 1 µM, first compound 0.03 µM) 19.7% | viability, T/C (second compound 3.16 µM, first compound 94.9 pM) 144% | viability, T/C (second compound 3.16 µM, first compound 0.0003 µM) 157% | viability, T/C (second compound 3.16 µM, first compound 0.000949 µM) 170% | viability, T/C (second compound 3.16 µM, first compound 0.003 µM) 120% | viability, T/C (second compound 3.16 µM, first compound 0.00949 µM) 82% | viability, T/C (second compound 3.16 µM, first compound 0.03 µM) 16.8% | viability, T/C (second compound 10 µM, first compound 94.9 pM) 134% | viability, T/C (second compound 10 µM, first compound 0.0003 µM) 157% | viability, T/C (second compound 10 µM, first compound 0.000949 µM) 164% | viability, T/C (second compound 10 µM, first compound 0.003 µM) 130% | viability, T/C (second compound 10 µM, first compound 0.00949 µM) 70.4%
13.7 nM: IC50 (second compound 10 µM)
16.8 nM: IC50 (second compound 0.316 µM)

COc1cc(Nc2ncc3c(n2)-c2ccc(Cl)cc2C(c2c(F)cccc2OC)=NC3)ccc1C(=O)O + C=CC(=O)N1CCN(c2nc(=O)n(-c3c(C)ccnc3C(C)C)c3nc(-c4c(O)cccc4F)c(F)cc23)C(C)C1
> 10000 nM: IC50 (second compound 0.0316 µM) | IC50 (second compound 0.1 µM) | IC50 (second compound 0.316 µM) | IC50 (second compound 1 µM) | IC50 (second compound 3.16 µM) | IC50 (second compound 10 µM)
inactive: viability, T/C (second compound 0.0316 µM, first compound 0.0316 µM) 94.8% | viability, T/C (second compound 0.0316 µM, first compound 0.1 µM) 125% | viability, T/C (second compound 0.0316 µM, first compound 0.316 µM) 99% | viability, T/C (second compound 0.0316 µM, first compound 1 µM) 109% | viability, T/C (second compound 0.0316 µM, first compound 3.16 µM) 106% | viability, T/C (second compound 0.0316 µM, first compound 10 µM) 71.6% | viability, T/C (second compound 0.1 µM, first compound 0.0316 µM) 103% | viability, T/C (second compound 0.1 µM, first compound 0.1 µM) 109% | viability, T/C (second compound 0.1 µM, first compound 0.316 µM) 108% | viability, T/C (second compound 0.1 µM, first compound 1 µM) 111% | viability, T/C (second compound 0.1 µM, first compound 3.16 µM) 106% | viability, T/C (second compound 0.1 µM, first compound 10 µM) 56.3% | viability, T/C (second compound 0.316 µM, first compound 0.0316 µM) 111% | viability, T/C (second compound 0.316 µM, first compound 0.1 µM) 114% | viability, T/C (second compound 0.316 µM, first compound 0.316 µM) 93.8% | viability, T/C (second compound 0.316 µM, first compound 1 µM) 116% | viability, T/C (second compound 0.316 µM, first compound 3.16 µM) 106% | viability, T/C (second compound 0.316 µM, first compound 10 µM) 69.3% | viability, T/C (second compound 1 µM, first compound 0.0316 µM) 122% | viability, T/C (second compound 1 µM, first compound 0.1 µM) 127% | viability, T/C (second compound 1 µM, first compound 0.316 µM) 115% | viability, T/C (second compound 1 µM, first compound 1 µM) 127% | viability, T/C (second compound 1 µM, first compound 3.16 µM) 117% | viability, T/C (second compound 1 µM, first compound 10 µM) 72.9% | viability, T/C (second compound 3.16 µM, first compound 0.0316 µM) 110% | viability, T/C (second compound 3.16 µM, first compound 0.1 µM) 123% | viability, T/C (second compound 3.16 µM, first compound 0.316 µM) 110% | viability, T/C (second compound 3.16 µM, first compound 1 µM) 96.3% | viability, T/C (second compound 3.16 µM, first compound 3.16 µM) 109% | viability, T/C (second compound 3.16 µM, first compound 10 µM) 83.3% | viability, T/C (second compound 10 µM, first compound 0.0316 µM) 136% | viability, T/C (second compound 10 µM, first compound 0.1 µM) 129% | viability, T/C (second compound 10 µM, first compound 0.316 µM) 154% | viability, T/C (second compound 10 µM, first compound 1 µM) 120% | viability, T/C (second compound 10 µM, first compound 3.16 µM) 101% | viability, T/C (second compound 10 µM, first compound 10 µM) 66.8%
